# Assay results reported in patent publication US11013704B2, “Compounds supports hematopoietic stem cells and red blood cells” (The Board of Regents of the University of Texas System, priority 2014, dated 2021).
# “Also recorded” adds a separate entry of the source.
# Legend:
# [1] = system: Mouse bone marrow Lin-Sca-1+Kit+CD34-Flk2-cells; assay: Proliferation of mouse HSCs; format: cell-based; conditions: serum-free Stemspan, 10 ng/ml SCF, 20 ng/ml TPO, cell numbers after 6 days
# Procedure: (§1) Mouse BM Lin-Sca-1+Kit+CD34-Flk2-cells were cultured in serum-free Stemspan medium with 10 ng/ml SCF, 20 ng/ml TPO, and indicated concentrations of SA. Cell numbers were counted after 6 days. FIG. 2B The effects of SA on the ex vivo expansion of mouse CD45.1 Percent repopulation of C57BL/6 bone marrow HSCs at 0, 10 nM, 100 nM, and 1 μM for 8 days, measured at 3 weeks, 7 weeks, and 16 weeks post-transplantation. The repopulation of donor mouse CD45.1 HSCs was determined by transplantation into lethally irradiated (1000 rad) CD45.2 C57BL/6 mice. Ten thousand CD45.2 total bone marrow cells were co-transplanted as competitors. n=5. […] The repopulation of human hematopoietic stem cells was determined by transplantation into sublethally irradiated (250 rad) NOD/SCID IL2R gamma^−/− (NSG) mice. n=7.
# Mouse bone marrow Lin-Sca-1+Kit+CD34-Flk2-cells were cultured in serum-free Stemspan medium with 10 ng/ml SCF, 20 ng/ml TPO, and indicated concentrations of SA. Cell numbers were counted after 6 days.
# Balb/c mice [2] = assay: Toxicity in mice, daily injections for 28 days; format: in vivo, mouse; conditions: for toxicity: 0.5 and 1.5 mg daily for four weeks (33- and 100-times the effective amount)
# Procedure: In this experiment, 8-week-old Balb/c mice were given daily injections of SA at doses of 0, 0.5, and 1.5 mg per mouse for 28 days. The body weight and activities of mice were monitored daily.
# [3] = Stability test in S9 extract; format: in vitro ADME, mouse; conditions: 2 μM, murine S9, Phase I NADPH cofactors, 0-240 minutes
# Procedure: (§2) SA (2 μM) was incubated with murine S9 (Lot KWB) and Phase I NADPH Regenerating System cofactors for 0-240 minutes. SA was quantified using a Qtrap 3200 mass spectrometer. n=3. (FIG. 7B) SA is stable in mouse plasma. 1 μl SA 2 mM DMSO stock was incubated with 1 ml ACD mouse plasma or saline making 2 μM SW125991 working solution. Vortext well and incubate in 37° C. water bath. At time point 0, 10, 30, 60, 120, 240, 1440 min, SA was quantified using a Qtrap 3200 mass spectrometer. n=3.
# SA (2 mM in H2O stock, final concentration in mixture is 2 μM) was incubated with Murine S9 (Lot KWB) fraction and Phase I (NADPH Regenerating System) cofactors for 0-240 minutes. Reactions were quenched with 1 mL (1:1) of methanol containing 0.2% formic acid, and 100 ng/ml IS (IS final conc.=10 ng/ml). Samples were vortexed for 15 seconds, incubated at RT for 10 minutes and spun for 5 minutes at 2400 rpm. Supernatant (1 mL) was then transferred to an eppendorf tube and spun in a table top, chilled centrifuge for 5 minutes at 13.2K rpm. Supernatant (800 μl) was transferred to an HPLC vial (w/out insert). Analyzed by Qtrap 3200 mass spectrometer.
# Balb/c mice [4] = assay: Mouse model of bone marrow failure after chemo- and radio-treatment; format: in vivo
# Procedure: (§3) Balb/c mice were first treated with 100 mg/kg acetylphenylhydrazine and, after 24 hours, were irradiated with 2 Gy. Two days post radiation treatment, the mice were treated with 62.5 mg/kg cyclophosphamide (CY). This treatment is known to induce sublethal damage to HSCs and RBCs. Two days after the CY treatment, the mice were given daily intraperitoneal injections of SA for 4 to 14 days; a range of SA concentrations was evaluated. Blood counts were measured at days 0, 4, and 8. Additionally, bone marrow Lin^−Sca-1^+Kit^+CD34^−Flk2^− (LSKFC) cells that are enriched for HSCs and hematopoietic lineages were quantified at day 14.
# as §3, with “The inventors tested the effect of SA on HSCs and RBCs in a mouse bone marrow failure model after chemo- and radio-therapy. In this model, Balb/c mice” for “Balb/c mice”, “for HSCs (Christensen and Weissman, 2001) and hematopoietic” for “for HSCs and hematopoietic”
# Stability test in plasma = format: in vitro ADME; conditions: 2 μM, mouse plasma, 37° C., 0-1440 min
# Procedure: as §2
# 1 μl of SA (2 mM DMSO stock) was incubated with 1 ml ACD mouse plasma or saline control to make 2 μM SW125991 working solution. Vortext well and incubate in 37° C. water bath. At time point 0, 10, 30, 60, 120, 240, 1440 min, 100 μl sample was crashed by 200 μl MeOH with IS benzylbenzamide at 15 ng/ml. Centrifuge twice at 13200 rpm for 5 min, and supernatant was injected into LCMS for analysis.
# [5] = system: human cord blood CD133+ cells; assay: Ex vivo expansion of human cord blood HSCs, repopulation in NSG mice; format: cell-based; conditions: cord blood CD133+ cells cultured 11 days, 1 μM, 8 weeks post-transplantation
# Procedure: as §1
# Cryopreserved human cord blood CD133^+ cells were purchased from AllCells. All of cells were from pooled donors. Purities of CD133^+ cells as analyzed by flow cytometry were higher than 90%. After thawing, the cell viability tested by trypan blue exclusion was higher than 72%. […] Eight weeks after transplantation, bone marrow nucleated cells from transplanted animals were analyzed by flow cytometry for the presence of human cells. Total human hematopoietic cells were determined as CD45/71^+, and human myeloid cells as myeloid CD45/71^+CD15/66b^+.
# [6] = system: Bone marrow CD45.1 Lin-Sca-1+Kit+Flk2-CD34- cells; assay: Ex vivo expansion of mouse bone marrow HSCs, repopulation after transplantation; format: cell-based; conditions: cultured 8 days, determined by bone marrow transplantation
# Procedure: as §1
# Bone marrow CD45.1 Lin^−Sca-1^+Kit^+Flk2^−CD34^− cells were isolated from 8-12 week old CD45.1 C57BL/6 mice and were plated into wells of a U-bottom 96-well plate (3799; Corning). StemSpan serum-free medium (StemCell Technologies) supplemented with 10 μg/mL heparin (Sigma), 10 ng/mL mouse SCF (R&D Systems), 20 ng/mL mouse TPO (R&D Systems), and 10 ng/mL human FGF-1 (Invitrogen), and indicated concentration of suberoylarginine was used. Cells were cultured at 37° C. in 5% CO2 and the normal level of O2 for 8 days. […]
# [7] = 0.5 and 1.5 mg per mouse daily for 28 days
compound,measurement,setting,value
"N=C(N)NCCC[C@H](NC(=O)CCCCCCC(=O)O)C(=O)O [SA, suberoyl arginine]",proliferation of mouse HSCs,[1],promoted the proliferation; also recorded: promotes proliferation
same,toxicity,Balb/c mice [2],did not observe any detectable SA toxicity
same,toxicity,Balb/c mice [2]; listed as subreoylarginine,no detectable toxicity
same,body weight,Balb/c mice [2]; [7],did not significantly alter
same,"changes in behavior, activity, hematology, serum chemistry, or urinalysis parameters",Balb/c mice [2]; [7],did not observe any changes
same,histological damage to tissues/organs,Balb/c mice [2]; [7],no damage was observed
same,body weight,"Balb/c mice [2]; 0.5 and 1.5 mg per mouse daily for 28 days, listed as suberoylarginine",No significant change
same,metabolic stability in S9 liver fractions,[3],metabolically stable
same,increase of phenotypic bone marrow HSCs,Balb/c mice [4]; 15 μg of SA per mouse (~0.7 mg/kg) per day for 14 days,~40%
same,increase of hematocrit relative to animals not treated,Balb/c mice [4]; day 8,25-30%
same,increase of hemoglobin relative to animals not treated,Balb/c mice [4]; day 8,25-30%
same,increase of level of RBCs relative to animals not treated,Balb/c mice [4]; day 8,25-30%
same,stimulation of hematopoietic recovery by route,Balb/c mice [4]; iv or intraperitoneal (ip) administration,works efficiently
same,effect on RBC recovery compared with EPO,"Balb/c mice [4]; same mouse model, SA 15 μg, EPO 120 U/kg",comparable to that of EPO
same,stability in plasma,Stability test in plasma,metabolically stable
same,ex vivo expansion of human HSCs,[5],supports the ex vivo expansion
same,ex vivo expansion of mouse HSCs,[6],supports the ex vivo expansion
